Source: ChEMBL document CHEMBL3808348, “Rational Design, Synthesis, and Biological Evaluation of 7-Azaindole Derivatives as Potent Focused Multi-Targeted Kinase Inhibitors” (J Med Chem, 2016)

Tests used:
[1] = Antiproliferative activity against human Caki2 cells after 72 hrs by MTT assay; assay type: functional, cell-based; details: CAKI-2, 72 h
NCI-H1975 = assay: Antiproliferative activity against human NCI-H1975 cells harboring EGFR L858R/T790M double mutant after 72 hrs by MTT assay; assay type: functional, cell-based; details: NCI-H1975, 72 h
[2] = Cmax in Swiss mouse plasma at 20 mg/kg, po by LC/MS/MS analysis; assay type: ADME, organism-based; set-up: dose 20 mg/kg, route oral
[3] = AUC(0 to infinity) in Swiss mouse plasma at 2 mg/kg, iv by LC/MS/MS analysis; assay type: ADME, organism-based; set-up: dose 2 mg/kg, route intravenous, time infinity
[4] = biological target: Tyrosine-protein kinase Yes (Homo sapiens, UniProt P07947); assay: Inhibition of GST-tagged full length human recombinant YES expressed in baculovirus using Fluorescein-Poly GT as substrate at 100 nM
[5] = biological target: Tyrosine-protein kinase HCK (Homo sapiens, UniProt P08631); assay: Inhibition of GST-tagged full length human recombinant HCK expressed in baculovirus using Fluorescein-Poly GT as substrate
Chain of Tyrosine-protein kinase HCK (P08631 whole entry): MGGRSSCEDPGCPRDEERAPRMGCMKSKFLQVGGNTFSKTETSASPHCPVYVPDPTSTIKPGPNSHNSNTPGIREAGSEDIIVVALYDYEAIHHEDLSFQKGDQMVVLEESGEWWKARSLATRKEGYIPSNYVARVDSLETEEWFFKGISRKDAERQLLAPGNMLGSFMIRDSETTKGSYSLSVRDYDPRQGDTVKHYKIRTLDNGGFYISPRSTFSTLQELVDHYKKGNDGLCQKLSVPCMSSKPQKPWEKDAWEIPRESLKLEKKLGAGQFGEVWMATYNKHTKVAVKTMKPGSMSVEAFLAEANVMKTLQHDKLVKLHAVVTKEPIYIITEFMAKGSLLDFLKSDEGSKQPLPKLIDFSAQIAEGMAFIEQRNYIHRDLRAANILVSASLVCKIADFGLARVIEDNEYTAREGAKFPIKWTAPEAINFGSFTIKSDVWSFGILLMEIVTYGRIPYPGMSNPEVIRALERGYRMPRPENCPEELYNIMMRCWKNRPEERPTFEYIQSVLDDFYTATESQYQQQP

[6] = biological target: Tyrosine-protein kinase ABL1 (Homo sapiens, UniProt P00519, Y253F); assay: Inhibition of His-tagged full length human recombinant ABL Y253F mutant expressed in baculovirus using Fluorescein-Poly GT as substrate
[7] = biological target: Proto-oncogene tyrosine-protein kinase ROS (Homo sapiens) (UniProt P08922); details: 100 nM
Description: Inhibition of GST-tagged human recombinant ROS1 (1883 to 2347 residues) expressed in baculovirus using Fluorescein-Poly GT as substrate at 100 nM

[8] = biological target: Tyrosine-protein kinase ZAP-70 (Homo sapiens) (UniProt P43403); details: 100 nM
Description: Inhibition of His-tagged full length human recombinant ZAP70 expressed in baculovirus using Fluorescein-Poly GT as substrate at 100 nM

[9] = biological target: Tyrosine-protein kinase ABL2 (Homo sapiens) (UniProt P42684); details: 100 nM
Chain of Tyrosine-protein kinase ABL2 (Homo sapiens) (P42684 whole entry): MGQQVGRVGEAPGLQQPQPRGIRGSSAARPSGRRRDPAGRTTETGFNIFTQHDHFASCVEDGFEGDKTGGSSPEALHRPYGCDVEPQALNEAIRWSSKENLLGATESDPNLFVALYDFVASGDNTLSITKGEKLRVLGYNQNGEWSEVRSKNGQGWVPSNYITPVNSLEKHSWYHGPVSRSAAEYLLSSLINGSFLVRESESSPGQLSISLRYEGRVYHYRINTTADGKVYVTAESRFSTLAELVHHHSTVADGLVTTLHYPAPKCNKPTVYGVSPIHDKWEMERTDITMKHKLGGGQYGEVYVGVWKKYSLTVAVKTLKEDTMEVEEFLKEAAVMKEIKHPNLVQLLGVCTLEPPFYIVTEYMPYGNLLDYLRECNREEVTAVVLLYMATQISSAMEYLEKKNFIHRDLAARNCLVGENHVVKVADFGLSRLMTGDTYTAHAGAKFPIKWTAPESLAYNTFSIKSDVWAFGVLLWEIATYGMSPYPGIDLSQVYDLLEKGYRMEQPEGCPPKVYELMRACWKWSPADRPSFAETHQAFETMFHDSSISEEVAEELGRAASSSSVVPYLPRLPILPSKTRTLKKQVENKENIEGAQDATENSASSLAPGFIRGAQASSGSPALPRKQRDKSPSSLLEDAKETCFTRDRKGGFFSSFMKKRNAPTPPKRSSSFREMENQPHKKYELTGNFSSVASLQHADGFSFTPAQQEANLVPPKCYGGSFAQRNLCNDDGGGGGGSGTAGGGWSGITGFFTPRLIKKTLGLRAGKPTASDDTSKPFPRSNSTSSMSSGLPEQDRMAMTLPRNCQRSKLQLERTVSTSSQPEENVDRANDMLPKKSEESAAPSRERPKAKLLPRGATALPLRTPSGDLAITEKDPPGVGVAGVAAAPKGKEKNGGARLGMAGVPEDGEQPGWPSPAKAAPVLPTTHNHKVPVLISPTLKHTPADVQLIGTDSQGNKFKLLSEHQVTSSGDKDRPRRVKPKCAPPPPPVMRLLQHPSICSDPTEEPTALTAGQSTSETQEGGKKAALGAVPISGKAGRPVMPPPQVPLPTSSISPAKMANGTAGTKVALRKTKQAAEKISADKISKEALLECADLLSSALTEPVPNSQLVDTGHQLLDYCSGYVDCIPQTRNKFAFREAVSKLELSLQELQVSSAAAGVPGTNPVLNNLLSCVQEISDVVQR
Description: Inhibition of His-tagged full length human recombinant ARG expressed in baculovirus using Fluorescein-Poly GT as substrate at 100 nM

[10] = biological target: Cyclin-dependent kinase 5/CDK5 activator 1 (Homo sapiens) (UniProt Q00535+Q15078); details: 100 nM
Chain of Cyclin-dependent kinase 5/CDK5 activator 1 (Homo sapiens) (Q00535 whole entry): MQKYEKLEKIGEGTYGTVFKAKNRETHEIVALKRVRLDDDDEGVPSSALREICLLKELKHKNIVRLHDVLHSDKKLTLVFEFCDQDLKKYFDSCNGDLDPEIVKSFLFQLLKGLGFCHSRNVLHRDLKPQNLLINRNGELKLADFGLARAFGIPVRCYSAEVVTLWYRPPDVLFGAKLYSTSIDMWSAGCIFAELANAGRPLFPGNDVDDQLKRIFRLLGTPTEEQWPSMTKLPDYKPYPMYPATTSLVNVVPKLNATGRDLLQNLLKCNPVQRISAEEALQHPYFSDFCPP
Chain of Cyclin-dependent kinase 5/CDK5 activator 1 (Homo sapiens) (Q15078 99-307 partner limits assumed): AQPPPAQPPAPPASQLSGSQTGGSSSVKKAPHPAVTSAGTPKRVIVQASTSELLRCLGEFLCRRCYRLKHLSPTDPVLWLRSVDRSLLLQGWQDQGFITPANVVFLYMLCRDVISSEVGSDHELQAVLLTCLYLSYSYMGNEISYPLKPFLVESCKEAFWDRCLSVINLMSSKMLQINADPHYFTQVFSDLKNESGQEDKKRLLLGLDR
Description: Inhibition of CDK5/p25 (unknown origin) at 100 nM

[11] = biological target: Receptor tyrosine-protein kinase erbB-2 (Homo sapiens) (UniProt P04626); details: 100 nM
Chain of Receptor tyrosine-protein kinase erbB-2 (Homo sapiens) (P04626 whole entry): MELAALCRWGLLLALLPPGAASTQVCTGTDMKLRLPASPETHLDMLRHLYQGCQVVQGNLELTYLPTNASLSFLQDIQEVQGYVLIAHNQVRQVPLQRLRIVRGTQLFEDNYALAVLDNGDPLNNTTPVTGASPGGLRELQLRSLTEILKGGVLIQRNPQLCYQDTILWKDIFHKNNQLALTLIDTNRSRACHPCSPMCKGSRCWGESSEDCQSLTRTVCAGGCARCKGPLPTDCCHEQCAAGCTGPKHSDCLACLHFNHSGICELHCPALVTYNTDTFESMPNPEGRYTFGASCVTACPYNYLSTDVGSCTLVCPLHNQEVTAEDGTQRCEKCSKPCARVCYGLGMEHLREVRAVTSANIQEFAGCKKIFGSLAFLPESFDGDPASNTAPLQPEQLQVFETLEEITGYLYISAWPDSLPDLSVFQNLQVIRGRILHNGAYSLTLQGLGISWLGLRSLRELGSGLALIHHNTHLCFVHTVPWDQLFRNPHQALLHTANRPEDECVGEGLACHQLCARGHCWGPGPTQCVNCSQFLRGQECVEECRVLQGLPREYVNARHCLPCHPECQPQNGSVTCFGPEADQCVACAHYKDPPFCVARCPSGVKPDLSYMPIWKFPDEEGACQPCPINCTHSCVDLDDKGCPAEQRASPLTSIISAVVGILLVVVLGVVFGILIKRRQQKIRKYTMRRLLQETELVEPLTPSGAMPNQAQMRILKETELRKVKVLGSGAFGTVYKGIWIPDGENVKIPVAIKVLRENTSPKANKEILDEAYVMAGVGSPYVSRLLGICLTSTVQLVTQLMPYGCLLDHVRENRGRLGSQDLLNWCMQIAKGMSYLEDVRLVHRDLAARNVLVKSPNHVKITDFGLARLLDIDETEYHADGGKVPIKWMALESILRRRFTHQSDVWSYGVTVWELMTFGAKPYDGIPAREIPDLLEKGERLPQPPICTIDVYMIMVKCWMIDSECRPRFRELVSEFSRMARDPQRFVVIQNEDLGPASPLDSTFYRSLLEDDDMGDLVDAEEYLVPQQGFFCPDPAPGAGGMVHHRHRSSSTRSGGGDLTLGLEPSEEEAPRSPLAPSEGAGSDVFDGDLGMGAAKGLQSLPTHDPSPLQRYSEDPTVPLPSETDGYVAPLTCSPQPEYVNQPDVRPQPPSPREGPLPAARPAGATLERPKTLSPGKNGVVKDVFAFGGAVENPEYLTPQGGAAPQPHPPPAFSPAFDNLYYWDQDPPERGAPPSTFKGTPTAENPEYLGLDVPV
Description: Inhibition of His-tagged human recombinant ERBB2 (676 to 1225 residues) expressed in baculovirus using Fluorescein-Poly GT as substrate at 100 nM

[12] = biological target: MAP kinase-activated protein kinase 5 (Homo sapiens) (UniProt Q8IW41); details: 100 nM
Chain of MAP kinase-activated protein kinase 5 (Homo sapiens) (Q8IW41 whole entry): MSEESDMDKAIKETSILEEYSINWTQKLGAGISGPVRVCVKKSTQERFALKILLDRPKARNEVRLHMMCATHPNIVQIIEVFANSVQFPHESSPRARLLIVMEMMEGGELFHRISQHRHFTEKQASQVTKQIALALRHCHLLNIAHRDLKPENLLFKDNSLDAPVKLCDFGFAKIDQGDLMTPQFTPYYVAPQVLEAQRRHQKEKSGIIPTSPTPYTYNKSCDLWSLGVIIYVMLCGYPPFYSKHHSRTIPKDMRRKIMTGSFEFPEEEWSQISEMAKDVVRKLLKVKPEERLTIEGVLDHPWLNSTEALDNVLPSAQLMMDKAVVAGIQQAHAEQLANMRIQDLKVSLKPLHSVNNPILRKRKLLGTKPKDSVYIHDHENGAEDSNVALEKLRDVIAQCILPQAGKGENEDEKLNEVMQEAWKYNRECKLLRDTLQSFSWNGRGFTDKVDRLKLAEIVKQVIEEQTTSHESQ
Description: Inhibition of His-tagged full length human recombinant MAPKAPK5 expressed in baculovirus at 100 nM

[13] = biological target: Megakaryocyte-associated tyrosine-protein kinase (Homo sapiens) (UniProt P42679); details: 100 nM
Chain of Megakaryocyte-associated tyrosine-protein kinase (Homo sapiens) (P42679 whole entry): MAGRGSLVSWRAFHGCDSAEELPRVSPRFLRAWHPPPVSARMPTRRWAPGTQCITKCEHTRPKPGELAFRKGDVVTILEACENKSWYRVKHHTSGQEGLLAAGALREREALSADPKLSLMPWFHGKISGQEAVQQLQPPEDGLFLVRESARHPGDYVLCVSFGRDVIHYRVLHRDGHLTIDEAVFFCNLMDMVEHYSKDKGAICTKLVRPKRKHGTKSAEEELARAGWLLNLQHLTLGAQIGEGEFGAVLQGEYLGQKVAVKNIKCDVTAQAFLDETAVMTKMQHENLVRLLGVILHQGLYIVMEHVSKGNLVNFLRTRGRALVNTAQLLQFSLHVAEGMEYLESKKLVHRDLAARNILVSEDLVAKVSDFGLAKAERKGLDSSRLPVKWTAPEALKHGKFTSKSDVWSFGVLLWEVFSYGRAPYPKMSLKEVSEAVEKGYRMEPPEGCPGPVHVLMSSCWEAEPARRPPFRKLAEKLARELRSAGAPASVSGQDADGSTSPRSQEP
Description: Inhibition of His-tagged full length human recombinant MATK expressed in Escherichia coli using Fluorescein-Poly GT as substrate at 100 nM

[14] = biological target: Serine/threonine-protein kinase Nek2 (Homo sapiens) (UniProt P51955); details: 100 nM
Chain of Serine/threonine-protein kinase Nek2 (Homo sapiens) (P51955 whole entry): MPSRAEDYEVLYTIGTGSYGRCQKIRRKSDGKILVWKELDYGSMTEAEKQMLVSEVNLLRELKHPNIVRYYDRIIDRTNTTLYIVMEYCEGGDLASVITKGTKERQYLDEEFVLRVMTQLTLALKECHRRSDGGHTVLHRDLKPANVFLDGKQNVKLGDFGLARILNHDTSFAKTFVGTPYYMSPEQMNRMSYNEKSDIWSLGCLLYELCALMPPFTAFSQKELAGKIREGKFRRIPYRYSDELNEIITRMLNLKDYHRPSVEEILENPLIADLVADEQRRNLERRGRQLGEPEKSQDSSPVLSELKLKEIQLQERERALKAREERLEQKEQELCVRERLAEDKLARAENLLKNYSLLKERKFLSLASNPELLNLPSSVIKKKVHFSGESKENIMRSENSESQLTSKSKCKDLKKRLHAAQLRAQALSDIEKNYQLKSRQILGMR
Description: Inhibition of HIS-tagged full length human recombinant NEK2 expressed in baculovirus using Fluorescein-PKC as substrate at 100 nM

For `COC(=O)c1cc2cc(NCc3cc(NC(=O)c4cc(-n5cnc(C)c5)cc(C(F)(F)F)c4)ccc3C)cnc2[nH]1`, the EC50 [1] was 22 nM, the EC50 (NCI-H1975) was 104 nM and the Cmax [2] was 610 ng/mL. The AUC(0-inf) [3] was 558 ng·h/mL, the inhibition [4] was > 80% and the IC50 [5] was 22 nM. The IC50 [6] was 51 nM, the inhibition [7] was < 40% and the inhibition [8] was < 40%. For the same molecule, the inhibition [9] was < 40%, the inhibition [10] was < 40% and the inhibition [11] was < 40%. For the same molecule, the inhibition [12] was < 40%, the inhibition [13] was < 40% and the inhibition [14] was < 40%.
